Results: ChEMBL document CHEMBL1136391, “Synthesis and activity of a C-8 keto pleuromutilin derivative” (2003)
Converted amounts (≈) assume the structure as drawn.

What was measured:
Type in all cases: functional
[1] = system: Moraxella catarrhalis; assay: Minimum inhibitory concentration against Moraxella catarrhalis / Pen+
[2] = system: Streptococcus pneumoniae; assay: Minimum inhibitory concentration against Streptococcus pneumoniae / Penicillin Resistant
[3] = system: Haemophilus influenzae; assay: Minimum inhibitory concentration against Haemophilus influenzae / Pen+
[4] = system: Staphylococcus aureus; assay: Minimum inhibitory concentration against Staphylococcus aureus / Homo MR

## C=C[C@]1(C)C[C@@H](OC(=O)Nc2ccc(OC)cc2)[C@]2(C)C(C)CC[C@]3(CCC(=O)[C@H]32)[C@@H](C)[C@@H]1O (stereo partly drawn)
[1]
  MIC: 0.125 µg/mL (≈ 0.266 µM)
[2]
  MIC: 0.003 µg/mL (≈ 0.00639 µM)
[3]
  MIC: 4 µg/mL (≈ 8.52 µM)
[4]
  MIC: 0.003 µg/mL (≈ 0.00639 µM)

## C=C[C@]1(C)C[C@@H](OC(=O)Nc2ccc(OC)cc2)[C@]2(C)C(C)CC(=O)[C@]3(CCC(=O)[C@H]32)[C@@H](C)[C@@H]1O (stereo partly drawn)
[1]
  MIC: 64 µg/mL (≈ 132 µM)
[2]
  MIC: 32 µg/mL (≈ 66.2 µM)
[3]
  MIC: 64 µg/mL (≈ 132 µM)
[4]
  MIC: 32 µg/mL (≈ 66.2 µM)
